Key:
S. aureus 68 = assay: MIC, clinical isolates of wound-associated pathogens; format: cell-based; details: Staphylococcus aureus; triclosan in the presence of DispersinB 40 μg/ml; clinical isolate S. aureus 68
Method: (§1) The combined antimicrobial activity of DispersinB™ and triclosan was studied by determining minimal inhibitory concentrations (MIC) in a 96 well microtiter plate. Briefly, serial two-fold dilutions of triclosan and in presence of DispersinB™ (40 μg/ml) were performed in TSB. A suspension of each microorganism from Table 1 was added to wells at a concentration of 5×10^5 CFU/mL, and the microtiter plates were incubated at 37° C. The MIC was defined, as the lowest concentration of an antimicrobial required for total inhibition of a test microorganism at 37° C. Triclosan in combination with DispersinB™ was active against all the pathogens tested.
(§2) The antimicrobial activity of DispersinB™ and triclosan combination was studied by determining the minimal inhibitory concentrations (MIC) in 96 well microtiter plates as described in Example 4. Triclosan in combination with DispersinB™ was active against all the pathogens tested (Table 2).

[1] = test system: Coagulase-negative staphylococci (CNS 11); assay: as above; format: cell-based; details: triclosan in the presence of DispersinB 40 μg/ml; clinical isolate CNS 11
Method: as §1, §2

S. aureus 120 = assay: as above; format: cell-based; details: Staphylococcus aureus; triclosan in the presence of DispersinB 40 μg/ml; clinical isolate S. aureus 120
Method: as §1, §2

S. aureus Gav 16A = assay: as above; format: cell-based; details: Staphylococcus aureus, GAV16A; triclosan in the presence of DispersinB 40 μg/ml; clinical isolate S. aureus Gav 16A
Method: as §1, §2

S. epidermidis [2] = assay: Adhesion assay with coated silicone catheter segments; format: cell-based, Staphylococcus epidermidis; details: silicone catheter coated with TCSN 10 mg/ml alone versus DispersinB 40 μg/ml alone
Method: (§3) The adhesion assay was performed to determine the synergistic effect of DispersinB™ and TCSN combination coated silicone catheters on S. epidermidis and E. coli colonization. The silicone catheter segments (1 cm each) were coated by dipping in DispersinB™ (40 μg/ml) and TCSN (10 mg/ml in 10% Polyethylene glycol) alone and in combination for overnight at 4° C. followed by drying at room temperature. The coated and uncoated segments were incubated in S. epidermidis and E. coli culture in TSB medium at 37° C. for 24 hours at 100 rpm. After 24 hours of incubation, the sections were washed three times gently. Each washed section was transferred into a sterile tube containing 1 ml sterile saline and subjected to sonication for 30 seconds and followed by 1 minute vortexing. Further, it was serially diluted using sterile saline and plated using Tryptic Soy Agar (TSA) plates. The plates were incubated at 37° C. for 24 hours and the colonies (CFU) were counted.

CNS 42 = assay: MIC, clinical isolates of wound-associated pathogens; format: cell-based, Coagulase-negative staphylococci; details: triclosan in the presence of DispersinB 40 μg/ml; clinical isolate CNS 42
Method: as §1, §2

CNS 82 = assay: as above; format: cell-based, Coagulase-negative staphylococci; details: triclosan in the presence of DispersinB 40 μg/ml; clinical isolate CNS 82
Method: as §1, §2

Enterobacter cloacae = assay: MIC in 96 well microtiter plate; format: cell-based; details: triclosan in the presence of DispersinB 40 μg/ml, 37° C.
Method: as §1

E. faecalis = assay: MIC in 96 well microtiter plate; format: cell-based; details: Enterococcus faecalis, triclosan in the presence of DispersinB 40 μg/ml, 37° C.
Method: as §1

E. coli [3] = assay: MIC in 96 well microtiter plate; format: cell-based; details: Escherichia coli, triclosan in the presence of DispersinB 40 μg/ml, 37° C.
Method: as §1

S. aureus = assay: MIC in 96 well microtiter plate; format: cell-based; details: Staphylococcus aureus, triclosan in the presence of DispersinB 40 μg/ml, 37° C.
Method: as §1

E. faecium = assay: MIC in 96 well microtiter plate; format: cell-based; details: Enterococcus faecium, triclosan in the presence of DispersinB 40 μg/ml, 37° C.
Method: as §1

S. epidermidis [4] = assay: MIC in 96 well microtiter plate; format: cell-based; details: Staphylococcus epidermidis, triclosan in the presence of DispersinB 40 μg/ml, 37° C.
Method: as §1

K. pneumoniae = assay: MIC in 96 well microtiter plate; format: cell-based; details: Klebsiella pneumoniae, triclosan in the presence of DispersinB 40 μg/ml, 37° C.
Method: as §1

C. albicans = assay: MIC in 96 well microtiter plate; format: cell-based; details: Candida albicans, triclosan in the presence of DispersinB 40 μg/ml, 37° C.
Method: as §1

P. mirabilis = assay: MIC in 96 well microtiter plate; format: cell-based; details: Proteus mirabilis, triclosan in the presence of DispersinB 40 μg/ml, 37° C.
Method: as §1

E. coli [5] = assay: Adhesion assay with coated silicone catheter segments; format: cell-based, Escherichia coli; details: silicone catheter coated with TCSN 10 mg/ml alone versus DispersinB 40 μg/ml alone
Method: as §3

Oc1cc(Cl)ccc1Oc1ccc(Cl)cc1Cl [triclosan]
MIC (S. aureus 68): < 0.39 µg/mL
MIC [1]: 25 µg/mL
MIC (S. aureus 120): < 0.39 µg/mL
MIC (S. aureus Gav 16A): < 0.39 µg/mL
inhibiting the growth of biofilm-embedded S. epidermidis, coating alone (S. epidermidis [2]): more effective than DispersinB™
MIC (CNS 42): 0.625 µg/mL
MIC (CNS 82): < 0.39 µg/mL
MIC (Enterobacter cloacae): 25 µg/mL
MIC (E. faecalis): 100 µg/mL
MIC (E. coli [3]): 6.25 µg/mL
MIC (S. aureus): < 0.097 µg/mL
MIC (E. faecium): 12.5 µg/mL
MIC (S. epidermidis [4]): 3.12 µg/mL
MIC (K. pneumoniae): 25 µg/mL
MIC (C. albicans): 100 µg/mL
MIC (P. mirabilis): 12.5 µg/mL
inhibiting the growth of biofilm-embedded E. coli, coating alone (E. coli [5]): more effective than DispersinB™

— US8821862B2, “Soluble β-N-acetylglucosaminidase based antibiofilm compositions and uses thereof” (Kane Biotech Inc., priority 2002, dated 2014)
